# In patent publication US9587266B2, “Mutant luciferases” (University of Massachusetts, priority 2011, dated 2017):
# Assays:
# Test in all cases: Bioluminescence emission scan
# Type in all cases: biochemical
# L286M + S347A luciferase = molecular target: T1, L286M + S347A luciferase (Photinus pyralis, UniProt P08659, L286M/S347A)
# T1 construct: The full firefly (Photinus pyralis) luciferase gene was PCR amplified from pGL3 (Promega); GST (N, cleaved yes); made in house; host or cells: E. coli JM109
# T1 sequence (P08659 whole entry L286M/S347A): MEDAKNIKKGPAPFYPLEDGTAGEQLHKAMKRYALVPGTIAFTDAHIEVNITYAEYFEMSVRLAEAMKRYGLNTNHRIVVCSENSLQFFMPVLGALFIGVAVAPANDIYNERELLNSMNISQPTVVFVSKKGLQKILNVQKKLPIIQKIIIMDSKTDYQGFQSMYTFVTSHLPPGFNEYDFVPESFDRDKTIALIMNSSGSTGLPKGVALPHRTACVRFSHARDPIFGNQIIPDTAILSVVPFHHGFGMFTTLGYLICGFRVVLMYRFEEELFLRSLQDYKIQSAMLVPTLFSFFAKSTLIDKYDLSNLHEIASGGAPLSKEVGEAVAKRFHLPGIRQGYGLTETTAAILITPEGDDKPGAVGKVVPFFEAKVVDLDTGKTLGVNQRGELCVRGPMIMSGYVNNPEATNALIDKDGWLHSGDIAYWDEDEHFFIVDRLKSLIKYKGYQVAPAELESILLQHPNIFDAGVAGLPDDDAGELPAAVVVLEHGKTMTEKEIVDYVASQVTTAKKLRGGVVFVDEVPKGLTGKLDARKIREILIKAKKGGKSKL
# Procedure: (§1) Purified mutant luciferases were used in bioluminescence emission and burst kinetics scans.
# (§2) Luciferase was rapidly injected into a cuvette containing substrate, and the emission from 400-800 nm was recorded in a SPEX FluoroMax-3 fluorimeter with closed excitation slits.
# S347A luciferase = molecular target: T2, S347A luciferase (Photinus pyralis, UniProt P08659, S347A)
# T2 construct: The full firefly (Photinus pyralis) luciferase gene was PCR amplified from pGL3 (Promega); GST (N, cleaved yes); made in house; host or cells: E. coli JM109
# T2 sequence (P08659 whole entry S347A): as the sequence (P08659 whole entry L286M/S347A) above, with M286L counted along it
# Procedure: as §1, §2
# T251S L286M luciferase = molecular target: T3, T251S L286M luciferase (Photinus pyralis, UniProt P08659, L286M/T251S)
# T3 construct: The full firefly (Photinus pyralis) luciferase gene was PCR amplified from pGL3 (Promega); GST (N, cleaved yes); made in house; host or cells: E. coli JM109
# T3 sequence (P08659 whole entry T251S/L286M): as the sequence (P08659 whole entry L286M/S347A) above, with T251S, A347S counted along it
# Procedure: as §1, §2
# F247A luciferase = molecular target: T4, F247A luciferase (Photinus pyralis, UniProt P08659, F247A)
# T4 construct: The full firefly (Photinus pyralis) luciferase gene was PCR amplified from pGL3 (Promega); GST (N, cleaved yes); made in house; host or cells: E. coli JM109
# T4 sequence (P08659 whole entry F247A): as the sequence (P08659 whole entry L286M/S347A) above, with F247A, M286L, A347S counted along it
# Procedure: as §1, §2
# T251Q luciferase = molecular target: T5, T251Q luciferase (Photinus pyralis, UniProt P08659, T251Q)
# T5 construct: The full firefly (Photinus pyralis) luciferase gene was PCR amplified from pGL3 (Promega); GST (N, cleaved yes); made in house; host or cells: E. coli JM109
# T5 sequence (P08659 whole entry T251Q): as the sequence (P08659 whole entry L286M/S347A) above, with T251Q, M286L, A347S counted along it
# Procedure: as §1, §2
# T251S luciferase = molecular target: T6, T251S luciferase (Photinus pyralis, UniProt P08659, T251S)
# T6 construct: The full firefly (Photinus pyralis) luciferase gene was PCR amplified from pGL3 (Promega); GST (N, cleaved yes); made in house; host or cells: E. coli JM109
# T6 sequence (P08659 whole entry T251S): as the sequence (P08659 whole entry L286M/S347A) above, with T251S, M286L, A347S counted along it
# Procedure: as §1, §2
# L286Y luciferase = molecular target: T7, L286Y luciferase (Photinus pyralis, UniProt P08659, L286Y)
# T7 construct: The full firefly (Photinus pyralis) luciferase gene was PCR amplified from pGL3 (Promega); GST (N, cleaved yes); made in house; host or cells: E. coli JM109
# T7 sequence (P08659 whole entry L286Y): as the sequence (P08659 whole entry L286M/S347A) above, with M286Y, A347S counted along it
# Procedure: as §1, §2
# F247R luciferase = molecular target: T8, F247R luciferase (Photinus pyralis, UniProt P08659, F247R)
# T8 construct: The full firefly (Photinus pyralis) luciferase gene was PCR amplified from pGL3 (Promega); GST (N, cleaved yes); made in house; host or cells: E. coli JM109
# T8 sequence (P08659 whole entry F247R): as the sequence (P08659 whole entry L286M/S347A) above, with F247R, M286L, A347S counted along it
# Procedure: as §1, §2
# F247V luciferase = molecular target: T9, F247V luciferase (Photinus pyralis, UniProt P08659, F247V)
# T9 construct: The full firefly (Photinus pyralis) luciferase gene was PCR amplified from pGL3 (Promega); GST (N, cleaved yes); made in house; host or cells: E. coli JM109
# T9 sequence (P08659 whole entry F247V): as the sequence (P08659 whole entry L286M/S347A) above, with F247V, M286L, A347S counted along it
# Procedure: as §1, §2
compound,measurement,setting,value
O=C(O)[C@H]1CSC(c2nc3cc4c(cc3s2)NCC4)=N1 [CycLuc1],Maximum Emission Wavelength of Selected Substrate,L286M + S347A luciferase,595 nm
same,Wavelength at Max. Emission,S347A luciferase,597 nm
same,Wavelength at Max. Emission,T251S L286M luciferase,601 nm
same,Wavelength at Max. Emission,F247A luciferase,605 nm
same,Wavelength at Max. Emission,T251Q luciferase,612 nm
same,Wavelength at Max. Emission,T251S luciferase,602 nm
same,Wavelength at Max. Emission,L286Y luciferase,604 nm
same,Wavelength at Max. Emission,F247R luciferase,609 nm
same,Wavelength at Max. Emission,F247V luciferase,603 nm
